Where two headings read alike, the source gives them in different places.
How the values were obtained:
[1] = system: Snail protein in MDA-MB-231 cells; experiment: Western blotting of Snail; format: cell-based, human; settings: western blot
Description: (§1) Total cell lysates were obtained by lysing the cells in SDS lysis buffer containing a protease inhibitor (PMSF), and protein concentrations were determined using a BCA protein assay kit. The proteins were separated by SDS-PAGE and transferred to PVDF membranes. The membranes were incubated with primary antibodies against Snail, Vimentin, β-catenin, and E-cadherin (1:1000 dilution) overnight at 4 °C, rinsed with TBST, and incubated with IRDye-conjugated anti-rabbit or anti-mouse IgG secondary antibodies (1:1000, LI-COR Biosciences). A β-actin-specific monoclonal antibody (1:1000 dilution) was used as a loading control. Bands were visualized with an Odyssey LI-COR infrared imaging system (LI-COR, Lincoln, NE).

[2] = system: MDA-MB-231 cells; experiment: cells; settings: Homo sapiens, MDA-MB-231, 48 h, read-out: approximate IC50 of colony forming ability
Description: The culture media was then aspirated and fresh cell culture media was added to allow colony formation. The culture media was changed every third day. The colonies were fixed with ice-cold methanol for 5 min and stained with 1.0% crystal violet for 30 min. Colony numbers were counted and representative photos were taken.

[3] = system: E-cadherin protein in MDA-MB-231 cells; experiment: Western blotting of E-cadherin; format: cell-based, human; settings: western blot
Description: as §1

[4] = system: MDA-MB-231 xenografted tumours; experiment: Mouse xenograft model, anti-tumour effect in vivo; parameters: species or system BALB/c nude mice
Description: Female BALB/c nude mice (18 ± 2 g) were purchased from Institute of Laboratory Animal Sciences, Peking Union Medical College (Beijing, China). […] The tumour length and width were measured using callipers and the tumour volume was calculated twice weekly. The body weight of mice was determined at least twice weekly during the study period.

[5] = system: β-catenin mRNA in MDA-MB-231 cells; experiment: PCR analysis of β-catenin mRNA; format: cell-based, human; settings: 24 h
Description: (§2) Total RNA from MDA-MB-231 cells was isolated using TRIzol (Life Technologies, USA). RNA samples were quantified using a NanoDrop 3300 spectrophotometer (Thermo Scientific, NanoDrop Products, Wilmington, DE, USA). Synthesis of cDNA was performed using a RevertAid First Strand cDNA Synthesis kit per manufacturer’s protocols (Thermo Scientific, USA). The reaction mixtures were heated at 95 °C for 10 min, followed by 30 cycles at 94 °C for 30 s, 58 °C for 30 s, 72 °C for 20 s, and a final extension at 72 °C for 5 min. Subsequently, PCR products were electrophoresed in a 1.5% agarose gel and scanned using a gel/fluorescence image analysis system. GAPDH was selected as a loading control to standardize the amount of cDNA from each sample.

[6] = system: MDA-MB-231 cells; experiment: Transwell invasion assay; format: cell-based, human; settings: 20 μM, 24 h, normalized for cell viability
Description: (§3) Cell invasion and migration were measured using Transwell and wound healing assays, respectively. For Transwell assays, 2 × 10^4 cells were suspended in serum-free media and seeded in the top chamber of Matrigel-coated invasion inserts (Corning life science, Corning, NY). BHX was then added to the top chambers. DMEM containing 10% FBS was added to the lower chamber as a chemoattractant. After 24 h incubation, the non-invading cells on the upper surface of the membrane were wiped away, and the invading cells on the lower surface of the membrane were fixed using 95% ethanol and stained with 0.1% crystal violet. Images were captured at ×200 magnification using an inverted phase contrast microscope (BX61, Olympus, Japan). In parallel, cells were treated identically in 24-well plate. These cells were harvested, stained with 0.1% crystal violet, and counted. The number of cells that had invaded was normalized for effects on cell viability. For wound healing assays, cells were seeded at 2 × 10^5 cells/well in 24-well culture plates and allowed to reach confluence. […] Images of the scratches were recorded at ×40 magnification using a phase contrast microscope (EVOS, AMG, USA) at 0 and 20 h. The areas between leading edges were measured using Image J software, after which the rates of wound healing were calculated.

[7] = system: vimentin mRNA in MDA-MB-231 cells; experiment: PCR analysis of vimentin mRNA; format: cell-based, human; settings: 24 h
Description: as §2

[8] = system: MGC803; parameters: method as in PMID 24098916; settings: cited from earlier work
[9] = system: E-cadherin mRNA in MDA-MB-231 cells; experiment: PCR analysis of E-cadherin mRNA; format: cell-based, human; settings: 24 h
Description: as §2

[10] = system: vimentin protein in MDA-MB-231 cells; experiment: Western blotting of vimentin; format: cell-based, human; settings: western blot
Description: as §1

[11] = system: MDA-MB-231 cells; experiment: Scratch-wound (wound healing) migration assay; format: cell-based; settings: Homo sapiens, 20 h
Description: as §3

[12] = system: MDA-MB-231 cells; experiment: Cell cycle analysis by flow cytometry; format: cell-based, human; settings: 24 h, vehicle 31.52 ± 2.67%
Description: Cell cycle analysis was carried out as previously described. […] They were washed thrice with ice-cold phosphate-buffered saline (PBS) and fixed with 75% ethanol at −20 °C overnight. The cells were then washed, incubated with 5 μl of RNase (0.25 mg/ml) at 37 °C for 30 min, pelleted, resuspended in propidium iodide (PI, 50 μg/ml), and incubated in the dark at room temperature for 15 min. Cell cycle analysis was analysed using a flow cytometer (FACSCanto II, BD, San Jose, CA).

[13] = system: β-catenin protein in MDA-MB-231 cells; experiment: Western blotting of β-catenin; format: cell-based, human
Description: as §1

[14] = system: HT29; parameters: method as in PMID 24098916; settings: cited from earlier work
[15] = system: A549; parameters: method as in PMID 24098916; settings: cited from earlier work
[16] = system: MDA-MB-231 cells; experiment: Morphology of MDA-MB-231 cells after BHX; format: cell-based, human; settings: 24 h incubation, more noticeable at high concentrations
[17] = system: Snail expression in MDA-MB-231 cells; experiment: PCR analysis of Snail expression; format: cell-based, human; settings: 24 h
Description: as §2

[18] = In vivo pharmacokinetics in rat plasma (UPLC-MS/MS, NCA); parameters: species or system Sprague-Dawley (SD) rats; settings: intraperitoneal; for Cmax / MRT last / Tmax / half-life / AUC(0-t): male, Sprague-Dawley, plasma, ip; for MRT last: read-out: MRT0-t
Description: Male Sprague-Dawley (SD) rats (250 ± 50 g body weight) were purchased from Institute of Laboratory Animal Sciences, Peking Union Medical College (Beijing, China). Rats were housed in a light-controlled room at 25 ± 2 °C and 55 ± 5% relative humidity, at the Animal Center of Tianjin Medical University Cancer Institute and Hospital (Tianjin, China). Animals received a standard diet and water ad libitum. […] At 0, 10, 20, 30, 40 min, 1, 2, 3, 4, 6, 8, 10, 12, and 24 h post injection, blood samples were collected into heparinized glass tubes by direct venipuncture. Plasma was prepared from the blood by centrifugation at 13,000 rpm for 10 min at 4 °C and stored at −80 °C until further analysis.
An ACQUITY™ ultra-performance liquid chromatography system connected to a Xevo triple quadrupole mass spectrometry system (Waters, MA, USA) equipped with an electrospray ionization (ESI) source was used in this study. Aliquots (50 μl) of plasma was vortex-mixed with methanol (400 μl) containing diazepam (internal standard, 200 ng/ml concentration) for 2 min and then centrifuged at 13,000 rpm at 4 °C for 10 min. Then, 400 μl of supernatant was transferred to a clean centrifuge tube and dried with an N2 gas stream. Samples were reconstituted with 100 μl methanol/H2O (50/50, v/v). The injection volume of the assay was 5 μl. The mobile phase (MP) was composed of MPA (acetonitrile) and MPB (5 mM ammonium formate with 0.1% formic acid in water), and the flow rate was maintained at 0.3 ml/min. […] A switching valve directed the flow eluting between 1.0–2.5 min into a mass spectrometer, and the remainder to a waste container. BHX and diazepam were ionized with ESI in the positive mode and fragmented with collision gas for analysis using multiple reaction monitoring (MRM). The ESI source settings for the analysis were as follows: 350 °C gas temperature; 650 L/h desolvation; 50 L/h cone; 2.5 kV capillary voltage. […] The data acquisition and processing were done using MassLynx Mass Spectrometry software, version 4.1 (Waters, MA, USA). The dwell time was 400 ms for all ion transitions monitored.

[19] = system: intracellular ROS in MDA-MB-231 cells; experiment: Measurement of intracellular ROS (H2DCFDA); format: cell-based, human; settings: 24 h, maximum potency at 20 μM
Description: The levels of intracellular ROS were monitored using dichlorofluorescein diacetate (H2DCFDA) as previously reported. […] The culture media were replaced with 1 ml of H2DCFDA/RPMI DMEM media and incubated at 37 °C for 30 min, with a final H2DCFDA concentration of 10 μM. The levels of ROS were then detected using flow cytometry (FACSCanto II, BD, San Jose, CA).

[20] = system: MDA-MB-231 cells; experiment: cells; settings: Homo sapiens, read-out: IC50 of suppression of cell viability
Description: After incubation, MTT solution (5 mg/ml, 20 μl per well) was added and incubated for 4 h. The culture media were then replaced with dimethyl sulfoxide (DMSO, 150 μl). […] The results are expressed as mean percentage of viable cells relative to untreated cells.

[21] = system: MDA-MB-231 cells; experiment: Detection of apoptosis (annexin V/PI flow cytometry); format: cell-based, human; settings: 24 h
Description: Flow cytometry was performed using PI and FITC-labelled annexin V (BD Pharmingen, CA, USA) staining according to the manufacturer’s protocol. […] After incubation at room temperature in the dark for 15 min, 400 μl of binding buffer (1×) was added. The samples were analysed within 1 h by flow cytometry (FACSCanto II, BD, San Jose, CA).

Compound: O=C(NCc1ccc(O)cc1)C1C(c2ccccc2)C(c2ccccc2)=NN1c1ccccc1 (centres unmarked) [BHX]
- Snail protein expression [1]: down-regulating Snail and vimentin expression in a dose-dependent manner
- IC50 [2]: ~20 µM
- E-cadherin protein level [3]: up-regulating the protein and mRNA levels of E-cadherin
- average tumour volume ([4]; 100 mg/kg for 21 days, vehicle 1179 ± 128 mm^3): 754 ± 96 mm^3
- tumour size compared to control group ([4]; 100, 200 mg/kg, daily intraperitoneal, 21 days, p < 0.01): significant decrease in tumour size
- body weight of treated mice ([4]; 21 days treatment, p > 0.05): no significant loss of body weight
- bioluminescent intensity of tumours ([4]; 21 days, dose not stated, control 8.90 ± 0.74 × 10^7): 6.13 ± 0.52 × 10^7 p/sec/cm^2/sr
- decrease of β-catenin mRNA levels ([5]; 5 μM): 4.61%
- decrease of β-catenin mRNA levels ([5]; 10 μM): 25.73%
- decrease of β-catenin mRNA levels ([5]; 20 μM): 33.19%
- reduction of invasive potential [6]: 48.38%
- reduction of vimentin mRNA levels ([7]; 5 μM): 4.89%
- reduction of vimentin mRNA levels ([7]; 10 μM): 26.27%
- reduction of vimentin mRNA levels ([7]; 20 μM): 40.08%
- cytotoxic effects [8]: exhibits cytotoxic effects
- increase of E-cadherin mRNA levels compared to control ([9]; 5 μM): 1.39 fold
- increase of E-cadherin mRNA levels compared to control ([9]; 10 μM): 1.65 fold
- increase of E-cadherin mRNA levels compared to control ([9]; 20 μM): 2.06 fold
- vimentin protein expression [10]: down-regulating Snail and vimentin expression in a dose-dependent manner
- inhibition at 5 µM ([11]; 5 μM): 34.4 ± 1.06%
- inhibition at 10 µM ([11]; 10 μM): 71 ± 1.65%
- inhibition at 20 µM ([11]; 20 μM): 90.32 ± 0.68%
- percentage of cells in the G0/G1 phase ([12]; 10 μM): 54.49 ± 1.93%
- percentage of cells in the G0/G1 phase ([12]; 20 μM): 61.50 ± 2.85%
- β-catenin expression by western blotting [13]: suppressed β-catenin expression in a concentration-dependent manner
- cytotoxic effects [14]: exhibits cytotoxic effects
- cytotoxic effects [15]: exhibits cytotoxic effects
- morphological changes [16]: cell shrinkage and fragmentation
- reduction of Snail expression ([17]; 5 μM): 7.03%
- reduction of Snail expression ([17]; 10 μM): 15.88%
- reduction of Snail expression ([17]; 20 μM): 27.14%
- CL ([18]; 50 μg/kg): 0.467 ± 0.1 mL/min/kg
- Vd ([18]; 50 μg/kg): 0.192 ± 0.047 L/kg
- t1/2 ([18]; 50 μg/kg): 4.82 ± 0.93 h
- CL ([18]; 100 μg/kg): 0.717 ± 0.12 mL/min/kg
- Vd ([18]; 100 μg/kg): 0.253 ± 0.062 L/kg
- Cmax ([18]; 50 ug/kg): 325 ± 55.1 ng/mL
- MRT last ([18]; 50 ug/kg, 50 μg/kg): 6.8 ± 1.25 h
- Tmax ([18]; 50 ug/kg, 50 μg/kg, read-out: Tmax): 5.37 ± 1.16 h
- half-life ([18]; 50 ug/kg, 50 μg/kg, read-out: elimination half-life in plasma (converted)): 4.82 ± 0.93 h
- AUC(0-t) ([18]; 50 ug/kg, first AUC0-t line): 1770 ± 325 ng·h/mL
- AUC(0-t) ([18]; 50 ug/kg, second AUC0-t line): 1820 ± 287 ng·h/mL
- Cmax ([18]; 100 ug/kg): 405 ± 87.5 ng/mL
- MRT last ([18]; 100 ug/kg, 100 μg/kg): 6.36 ± 1.32 h
- Tmax ([18]; 100 ug/kg, 100 μg/kg, read-out: Tmax): 5.62 ± 1.38 h
- half-life ([18]; 100 ug/kg, 100 μg/kg, read-out: t1/2 (converted)): 4.11 ± 0.81 h
- AUC(0-t) ([18]; 100 ug/kg, first AUC0-t line): 2300 ± 412 ng·h/mL
- AUC(0-t) ([18]; 100 ug/kg, second AUC0-t line): 2350 ± 303 ng·h/mL
- Tmax ([18]; Fig. 7c, read-out: time to peak plasma level post administration): ~6 h
- ROS generation [19]: significantly increased in a dose-dependent manner
- IC50 ([20]; MDA-MB-231, 24 h): 28.1 µM
- IC50 ([20]; MDA-MB-231, 72 h): 13.8 µM
- early apoptotic cells vs vehicle [21]: increased the percentage of early apoptotic cells

From publication PMC5567253 (Scientific Reports, 2017)
